Data: patent US10487115B2, “Proteinaceous compounds and uses therefor” (UNIVERSITY OF CANBERRA, priority 2016, dated 2019)
* marks the point of attachment. Myristoyl = CCCCCCCCCCCCCC(=O)*

How the values were obtained:
Importin α = assay: Localization of Importin α in PMA-stimulated MCF7 cells (immunofluorescence, Fn/c); type: cell-based, human; details: 50 μM, p=not significant relative to control
Experimental: (§1) MCF7 cells were pre-seeded overnight on sterile coverslips in 12 well plates with 1 mL of completed Dulbecco's modified eagle medium (DMEM) before incubating with 50 μM of importinib4759 (synthesized in accordance with Example 1) and importinib4759_O1 (synthesized in accordance with Example 1) for 24 hr. Test peptides were not removed when MCF7 cells were stimulated with 0.65 ng/mL of phorbol 12-myristate 13-acetate (PMA) for 60 hr. Diethylpyrocarbonate (DEPC)-water was used for control (test peptides were dissolved in sterile DEPC-water). After wash with Dulbecco's phosphate buffered saline (DPBS) twice, samples on coverslips were fixed with 4% paraformaldehyde for 10 minutes and stained with PKC-θ (Cat. SC-212), PKC-θ-Phosphor-T538, PKC-β2, PKC-α, Importin α, or Importin 8 primary Antibody respectively and conjugated Alexa-488 secondary Antibody. Cell nucleus was stained with anti-fade 2-(4-amidinophenyl)-6-indolecarbamidine dihydrochloride (DAPI). When samples were dried overnight, Nikon fluorescence microscopy was used to take photos. ImageJ software was used for densimetric analysis. Fn/c was calculated using the formula: Fn/c=(nuclear density-background density)/(cytoplasmic density-background density).

p53 = assay: Nuclear expression of p53 in PMA-stimulated MCF7 cells (immunofluorescence, Fn/c); type: cell-based, human; details: 50 μM 24 hr, PMA 60 hr, p=0.0009
Experimental: (§2) MCF7 cells were pre-seeded overnight on sterile coverslips in 12 well plates with 1 mL of completed DMEM before inhibiting with 50 μM of importinib4759_O1 (synthesized in accordance with Example 1) for 24 hr. Importinib4759_O1 was removed when MCF7 cells were stimulated with 0.65 ng/mL of PMA for 60 hr. DEPC-water was used as the control (importinib4759_O1 was dissolved in sterile DEPC-water). After washing with DPBS twice, samples on coverslips were fixed with 4% paraformaldehyde for 10 minutes and stained with p65, Rb, or p53 primary Antibody and conjugated Alexa-488 secondary Antibody. Cell nucleus was stained with anti-fade DAPI. When samples were dried overnight, Nikon fluorescence microscopy was used to take photos. ImageJ software was used for densimetric analysis. Fn/c was calculated using the formula: Fn/c=(nuclear density-background density)/(cytoplasmic density-background density).

MCF7 epithelial cells = assay: Live cell population after treatment, MCF7 cells (FACS); type: cell-based, human; details: same concentration of inhibitor as in MDA-MB-231 cells
Experimental: (§3) 5×10^4 MCF7 cells were seeded with 1 mL of complete DMEM in 12 well plates overnight, then importinib4759 (5004 and 100 μM; synthesized in accordance with Example 1) or importinib4759_O1 (2504 and 50 μM; synthesized in accordance with Example 1) were used to treat cells for 24 hr before stimulation with PMA for 60 hr. Samples were harvested by trypsinization followed by washing with DPBS containing 2% heat inactivated foetal bovine serum (HI-FBS). FACS staining were performed using anti-human CD44-APC, anti-human CD24-PE, Hoechst, and anti-human EpCAM antibody cocktails. Data was collected from BD FACSLSR-II flow cytometer. Treestar FlowJo was used for data analysis.
as §3, with “5×10^4 MDA-MB-231” for “5×10^4 MCF7”, “for 48” for “for 24”, “before samples” for “before stimulation with PMA for 60 hr. Samples”, “2% HI-FBS.” for “2% heat inactivated foetal bovine serum (HI-FBS).”, “staining was” for “staining were”

NF-κB p65 = assay: Nuclear expression of NF-κB p65 in PMA-stimulated MCF7 cells (immunofluorescence, Fn/c); type: cell-based, human; details: 50 μM 24 hr, PMA 60 hr, p=0.0033
Experimental: as §2

MDA-MB-231 cells = assay: Live cell population after treatment, MDA-MB-231 cells (FACS); type: cell-based, human; details: 48 hr treatment, p<0.0001 relative to control
Experimental: as §3, with “5×10^4 MDA-MB-231” for “5×10^4 MCF7”, “for 48” for “for 24”, “before samples” for “before stimulation with PMA for 60 hr. Samples”, “2% HI-FBS.” for “2% heat inactivated foetal bovine serum (HI-FBS).”, “staining was” for “staining were”

MCF7 cells = assay: CD44hiCD24lo cancer stem cell formation in MCF-IM model (FACS); type: cell-based, human; details: importinib4759 5004 and 100 μM, importinib4759_O1 2504 and 50 μM, 24 hr before PMA 60 hr, p=0.0079 relative to control
Experimental: as §3

MDA-MB-231 xenograft = assay: Balb/c-nude MDA-MB-231 xenograft breast cancer model: tumor volume and cancer stem cell proportion; type: in vivo, balb/c-nude mice
Experimental: A Balb/c-nude MDA-MB-231 xenograft breast cancer model was utilized to determine the effect of the importinib peptides alone and in combination with the chemotherapeutic, docetaxel in comparison to a randomized peptide control.
Five week old balb/c-nude mice (n=5 per test compound) were injected with MDA-MB-231 human breast carcinoma cell suspensions (2×10^6 cells in 25 μL PBS mixed with 25 μL of BD Matrigel Matrix) subcutaneously into the right mammary gland. Test compounds in a saline vehicle [4 mg/kg docetaxel; 8 mg/kg, 40 mg/kg and 60 mg/kg importinib4759 or importinib4759_O1 (synthesized in accordance with Example 1); 4 mg/kg docetaxel with 8 mg/kg importinib4759 or importinib4759_O1; 4 mg/kg docetaxel with 40 mg/kg importinib4759 or importinib4759_O1; 4 mg/kg docetaxel with 60 mg/kg importinib4759 or importinib4759_O1; or randomized peptide control] were injected intraperitoneally. Tumor volume was assessed using calipers daily over a period of five weeks following treatment. Animals were sacrificed after the five week period. Tumor grafts were removed using resection and processed into single cell suspensions. The percentage of cancer stem cells was determined using FACS analysis. FACS staining was performed using anti-human CD44-APC, anti-human CD24-PE, Hoechst, and anti-human EpCAM antibody cocktails. Data was collected from BD FACSLSR-II flow cytometer. Treestar FlowJo was used for data analysis. Significance was determined using a one-way ANOVA or Mann-Whitney T-test.

PKC-α = target: T1, PKC-α (Homo sapiens, UniProt P17252); assay: Localization of PKC-α in PMA-stimulated MCF7 cells (immunofluorescence, Fn/c); type: cell-based; details: 50 μM, p=not significant relative to control
T1 construct: endogenous in cells; host or cells: MCF7
Experimental: as §1

Importin 8 = target: T2, Importin 8 (Homo sapiens, UniProt O15397); assay: Localization of Importin 8 in PMA-stimulated MCF7 cells (immunofluorescence, Fn/c); type: cell-based; details: 50 μM, p=not significant relative to control
T2 construct: endogenous in cells; host or cells: MCF7
Experimental: as §1

Rb = assay: Expression of tumor suppressor protein Rb in PMA-stimulated MCF7 cells (immunofluorescence, Fn/c); type: cell-based, human; details: 50 μM 24 hr, PMA 60 hr, p=0.0007
Experimental: as §2

PKC-β2 = target: T3, PKC-β2 (Homo sapiens, UniProt P05771); assay: Localization of PKC-β2 in PMA-stimulated MCF7 cells (immunofluorescence, Fn/c); type: cell-based; details: 50 μM, p=not significant relative to control
T3 construct: endogenous in cells; host or cells: MCF7
Experimental: as §1

PKC-θ = target: T4, PKC-θ (Homo sapiens, UniProt Q04759); assay: Nuclear translocation of PKC-θ in PMA-stimulated MCF7 cells (immunofluorescence, Fn/c); type: cell-based
T4 construct: endogenous in cells; host or cells: MCF7
Experimental: as §1

T4 sequence (Q04759 whole entry): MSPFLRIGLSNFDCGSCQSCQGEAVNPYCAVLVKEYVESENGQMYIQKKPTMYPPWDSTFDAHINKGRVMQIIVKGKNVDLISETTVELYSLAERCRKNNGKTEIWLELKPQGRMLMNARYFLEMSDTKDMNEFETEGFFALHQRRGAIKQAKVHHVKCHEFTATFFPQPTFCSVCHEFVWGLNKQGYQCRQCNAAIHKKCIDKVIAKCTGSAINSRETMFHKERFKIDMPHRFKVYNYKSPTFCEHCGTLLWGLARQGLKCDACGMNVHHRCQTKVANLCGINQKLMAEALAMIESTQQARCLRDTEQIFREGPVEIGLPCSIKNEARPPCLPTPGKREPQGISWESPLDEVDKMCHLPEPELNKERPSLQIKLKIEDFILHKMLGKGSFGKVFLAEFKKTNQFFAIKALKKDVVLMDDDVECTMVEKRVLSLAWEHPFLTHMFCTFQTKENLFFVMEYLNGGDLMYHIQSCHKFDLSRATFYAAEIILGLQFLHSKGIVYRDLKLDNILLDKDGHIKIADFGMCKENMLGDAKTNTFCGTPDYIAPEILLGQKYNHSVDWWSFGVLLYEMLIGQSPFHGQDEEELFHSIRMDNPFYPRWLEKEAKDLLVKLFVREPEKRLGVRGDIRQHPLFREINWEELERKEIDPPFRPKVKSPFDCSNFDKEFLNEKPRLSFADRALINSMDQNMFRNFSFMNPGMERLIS
T2 sequence (O15397 whole entry): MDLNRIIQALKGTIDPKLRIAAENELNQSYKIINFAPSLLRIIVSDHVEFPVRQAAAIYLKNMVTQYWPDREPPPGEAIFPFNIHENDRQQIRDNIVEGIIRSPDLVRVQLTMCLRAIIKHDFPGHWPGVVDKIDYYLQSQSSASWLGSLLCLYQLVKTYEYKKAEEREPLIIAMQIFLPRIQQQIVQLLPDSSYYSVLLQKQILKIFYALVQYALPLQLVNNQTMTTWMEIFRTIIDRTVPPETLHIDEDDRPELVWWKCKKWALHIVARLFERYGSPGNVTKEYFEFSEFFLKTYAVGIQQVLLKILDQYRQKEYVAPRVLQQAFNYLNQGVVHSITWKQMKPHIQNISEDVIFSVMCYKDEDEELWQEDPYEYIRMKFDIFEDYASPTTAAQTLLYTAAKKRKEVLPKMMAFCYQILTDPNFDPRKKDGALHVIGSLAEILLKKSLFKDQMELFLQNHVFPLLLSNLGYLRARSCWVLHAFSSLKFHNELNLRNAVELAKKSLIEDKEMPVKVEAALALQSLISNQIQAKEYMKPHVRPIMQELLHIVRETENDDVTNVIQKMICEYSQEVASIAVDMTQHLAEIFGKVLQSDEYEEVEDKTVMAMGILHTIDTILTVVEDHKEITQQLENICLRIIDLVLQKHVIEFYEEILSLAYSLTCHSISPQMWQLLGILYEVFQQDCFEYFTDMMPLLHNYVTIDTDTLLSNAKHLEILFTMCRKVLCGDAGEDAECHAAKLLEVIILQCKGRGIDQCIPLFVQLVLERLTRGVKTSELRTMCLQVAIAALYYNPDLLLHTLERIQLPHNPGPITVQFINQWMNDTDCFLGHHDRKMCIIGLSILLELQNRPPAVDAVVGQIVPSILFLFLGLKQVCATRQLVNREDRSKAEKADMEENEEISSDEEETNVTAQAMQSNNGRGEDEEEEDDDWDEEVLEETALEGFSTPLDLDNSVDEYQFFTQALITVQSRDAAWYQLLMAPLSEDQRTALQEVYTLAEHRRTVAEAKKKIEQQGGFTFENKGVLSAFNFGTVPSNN
T3 sequence (P05771 1-673 isoform P05771-2): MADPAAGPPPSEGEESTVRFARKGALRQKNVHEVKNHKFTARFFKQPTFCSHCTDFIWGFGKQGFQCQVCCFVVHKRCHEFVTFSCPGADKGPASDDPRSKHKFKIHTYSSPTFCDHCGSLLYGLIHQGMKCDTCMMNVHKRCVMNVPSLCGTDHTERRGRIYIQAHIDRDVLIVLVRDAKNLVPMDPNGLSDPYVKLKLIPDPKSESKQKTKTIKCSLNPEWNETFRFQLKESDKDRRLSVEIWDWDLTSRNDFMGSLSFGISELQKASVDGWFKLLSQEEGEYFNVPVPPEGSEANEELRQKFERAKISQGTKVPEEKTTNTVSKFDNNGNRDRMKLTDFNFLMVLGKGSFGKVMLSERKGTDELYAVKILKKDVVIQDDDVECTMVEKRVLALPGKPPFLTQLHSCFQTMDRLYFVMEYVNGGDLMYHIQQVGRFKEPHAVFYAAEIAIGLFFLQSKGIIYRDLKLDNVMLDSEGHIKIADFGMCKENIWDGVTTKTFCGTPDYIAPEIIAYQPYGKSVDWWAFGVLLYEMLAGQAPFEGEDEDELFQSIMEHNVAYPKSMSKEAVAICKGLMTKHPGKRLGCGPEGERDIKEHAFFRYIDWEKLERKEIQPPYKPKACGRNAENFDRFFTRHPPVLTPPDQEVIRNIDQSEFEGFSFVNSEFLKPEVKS

effect on distribution of PKC-α (PKC-α): had no effect
effect on distribution of Importin 8 (Importin 8): had no effect
effect on distribution of PKC-β2 (PKC-β2): had no effect
blocking of nuclear PKC-θ (nuclear translocation) (PKC-θ; 50 μM peptide 24 hr, then PMA 0.65 ng/mL 60 hr, N-myristoylated peptides, p<0.0001 relative to control): capable of blocking nuclear PKC-θ
Substance: RRKRIDWPPRRKPK-OH (Myristoyl-RRKRIDWPPRRKPK-OH; SMILES CCCCCCCCCCCCCC(=O)N[C@@H](CCCNC(=N)N)C(=O)N[C@@H](CCCNC(=N)N)C(=O)N[C@@H](CCCCN)C(=O)N[C@@H](CCCNC(=N)N)C(=O)N[C@H](C(=O)N[C@@H](CC(=O)O)C(=O)N[C@@H](Cc1c[nH]c2ccccc12)C(=O)N1CCC[C@H]1C(=O)N1CCC[C@H]1C(=O)N[C@@H](CCCNC(=N)N)C(=O)N[C@@H](CCCNC(=N)N)C(=O)N[C@@H](CCCCN)C(=O)N1CCC[C@H]1C(=O)N[C@@H](CCCCN)C(=O)O)[C@@H](C)CC) [Importinib4759_O1, tested N-myristoylated]
effect on distribution of Importin α (Importin α): had no effect
nuclear expression of p53 (p53): significantly inhibited nuclear expression
effect on live cell population of MCF7 epithelial cells (MCF7 epithelial cells): minimal effect
nuclear expression of NF-κB p65 (NF-κB p65): significantly inhibited nuclear expression
effect on live cell population of MDA-MB-231 cells (MDA-MB-231 cells): cleared virtually all MDA-MB-231 cells
cancer stem cell (CD44hiCD24lo) formation (MCF7 cells): inhibited
cancer stem cell (CD44highCD24low) population in tumor grafts (MDA-MB-231 xenograft; FACS of resected tumor grafts after five weeks): significantly abrogated the cancer stem cell population
tumor volume in comparison to the control or docetaxel treatment alone (MDA-MB-231 xenograft; intraperitoneal, peptide 8, 40 and 60 mg/kg, docetaxel 4 mg/kg, five weeks): abrogated tumor volume
tumor volume over time (MDA-MB-231 xenograft; intraperitoneal, peptide 8, 40 and 60 mg/kg, docetaxel 4 mg/kg, five weeks, n=5): reduced tumor volume over time
expression of tumor suppressor protein Rb (Rb): enhanced expression
capacity to prevent PKC-θ nuclear translocation compared to importinib4759 (PKC-θ; 50 μM, PMA stimulated): significantly higher capacity to prevent PKC-θ nuclear translocation compared to importinib4759
